Reference: PubChem BioAssay AID179 (DTP/NCI, 2004)
pEC50, pIC50: −log10 of the molar value. Where “and” joins values, the source holds several entries; their conditions need not be identical. Equal values may be shown once. Calls of active or inactive are those of the source.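 How the source made its calls: active means compounds giving half or more protection of infected cells from virus-caused growth loss, again on retest; inactive means the rest.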 Where a SMILES comes first, the peptide text is derived from it. The star is where a group is joined. Cbz = O=C(OCc1ccccc1)*

Tested on: CEM cells HIV-1 protection, formazan growth assay
Test: NCI AIDS Antiviral Assay
Settings: for pIC50: measured here: growth of uninfected CEM cells
In short: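 Steps: treat uninfected and HIV-1-infected human CEM cells at five drug levels; quantify growth by soluble formazan; retest any compound reaching 50% protection; classify actives from the retest.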

Compound | outcome | pEC50 | pIC50
N/N=C1\C(=O)N(C2CCCCC2)C(=O)C1C(=O)NC1CCCCC1 (stereo not drawn) | inactive | – | –
O=C1CCCC/C1=C/c1ccc(Cl)cc1 | inactive | – | –
CN1c2ccccc2N(C)P1(=S)c1ccccc1 | – | < 3.70 | 4.57
Nc1nnc(Cc2ccccc2[N+](=O)[O-])c(=O)[nH]1 | – | < 4.53 | < 4.53
CC(=O)Nc1cc(S(=O)(=O)O)cc2cc(S(=O)(=O)O)cc(O)c12 | – | < 3.70 | < 3.70
Fc1ccc(N2C(=S)SC(=Nc3ccccc3)C2=Nc2ccccc2)cc1 | – | < 3.70 | 4.63
Cc1nc(N)nc(N)c1N1CCNCC1 | – | < 3.70 | < 3.70
CNC(=S)SSSSC(=S)NC | inactive | – | –
CCC[CH2][Sn]1([CH2]CCC)[O]C(=O)c2cc(I)cc(I)c2[O]1 | inactive | – | –
CCC([NH-])C(=O)O.CCC([NH-])C(=O)O.[Cu+2] (stereo not drawn) | – | < 3.70 | 4.74
O=C1C2C3C=C4c5ccccc5N(c5ccccc5)C4(C2C(=O)N1c1ccc([N+](=O)[O-])cc1)[C@H]1C(=O)N(c2ccc([N+](=O)[O-])cc2)C(=O)[C@@H]31 (stereo partly drawn) | – | < 4.96 | < 4.96
CCSC1=N/C(=C\c2ccccc2O)C(Nc2ccc(C)cc2)=N1 | – | < 4.00 | < 4.00
NC(=O)N/N=C(\Cc1nc2ccc(C(=O)c3ccccc3)cc2[nH]c1=O)C(=O)Nc1ccc(Br)cc1 | inactive | – | –
COc1nn(Cc2ccccc2F)c2ccc([N+](=O)[O-])cc12 | – | < 3.70 | 4.30
O=C1CCSSCCC(=O)NCCCN1 | – | < 4.39 | < 4.39
N#Cc1c(-c2ccccc2)c(C#N)c(=S)n(C2OCC(O)C(O)C2O)c1N (stereo not drawn) | – | < 3.70 | 3.71 and < 3.70
O=C(/C(=C/c1ccccc1)c1ccccc1)N1c2ccccc2CC1c1c[nH]c2ccccc12 (stereo not drawn) | – | 6.42 | 5.07
O=c1c2cc([N+](=O)[O-])ccc2n2n1CCCCC2 | – | < 3.70 | < 3.70
C=CCC1(OC(C)=O)C2OC(=O)C1(O)OCC2O (stereo not drawn) | – | < 3.70 | < 3.70
O=[N+]([O-])c1cc(C(F)(F)F)cc([N+](=O)[O-])c1CCl | inactive | – | –
[N-]=[N+]=Nc1cccc(-c2n[nH]c(Cl)cc2=O)c1 | – | < 3.70 | < 3.70
O=C(NCCc1ccccn1)c1ccc2cc(C(=O)N3CC(CCl)c4ccc([N+](=O)[O-])cc43)[nH]c2c1 (stereo not drawn) | – | < 3.70 | 4.13
CN1C(=O)n2c(nc3ccccc32)C(N=[N+]=[N-])(N=[N+]=[N-])C1=O (stereo not drawn) | – | 4.15 | < 4.00

Compound | outcome | pEC50 | pIC50
COc1ccc2[nH]c3c(c2c1)CCc1c(OC)cccc1-3 | – | < 3.70 | 3.75
CCOC(=O)C(NNc1ccccc1)C(c1ccccc1)[P+](c1ccccc1)(c1ccccc1)c1ccccc1 (stereo not drawn) | – | < 3.70 | 5.44
Cc1cn([C@@H]2C[C@@H]2CO)c(=O)[nH]c1=O | inactive | – | –
COc1cc(Br)c(C=Nc2cccc3cc(OC)c(OC)cc23)cc1OC | – | < 4.50 | < 4.50
O=c1ccn(C2OC(CO)C(F)C2F)c(=O)[nH]1 (stereo not drawn) | – | < 3.30 | < 3.30
O=C1C=CC(=O)N1Nc1ccc([N+](=O)[O-])cc1[N+](=O)[O-] | – | < 3.70 | 3.96
O=c1[nH]c(SCc2c(Cl)c(Cl)c(Cl)c(Cl)c2Cl)nc(=S)[nH]1 | – | < 3.70 | 4.08
O=C(O)CNc1c2ccccc2nc2ccccc12 | inactive | – | –
Cc1ccc(/C=N/NS(=O)(=O)c2ccccc2)cc1 | inactive | – | –
Nc1nc(=O)n(C2CCC(CO)O2)cc1F (stereo not drawn) | – | 6.82 | 4.49
N/N=C1\c2ccccc2C2/C(=N\N)c3ccccc3C12 (stereo not drawn) | inactive | – | –
c1cc2c3c(c1)[I+]c1cccc(c1-3)[I+]2 | – | < 4.00 | 6.92
Cc1nc2c(nc1C)C(=O)C(N(C)C)=CC2=O | inactive | – | –
CC(O)C1OC(n2cnc3c(=O)[nH]c(N)nc32)C(O)C1O (stereo not drawn) | – | < 3.77 | < 3.77
Cc1c[nH]c(C(=O)O)c1-c1cccn1-c1ccc(Cl)cc1[N+](=O)[O-] | – | < 3.70 | 4.06
OC(C/C=N/N=C/CC(O)(C(F)(F)Cl)C(F)(F)Cl)(C(F)(F)Cl)C(F)(F)Cl | – | < 3.70 | 4.05
O=C(/C=C/c1ccc([N+](=O)[O-])cc1)c1ccc(NCc2nc3ccccc3[nH]2)cc1 | – | < 4.88 | < 4.88
COc1ccc([B-]23OCC[N+]2(CNC(=O)C2=C(O)C4(O)C(=O)C5=C(O)c6c(O)cccc6C(C)(O)C5CC4C(N(C)C)C2=O)CCO3)cc1 (stereo not drawn) | – | < 4.00 | 4.32
C/C(=N\Nc1ccccc1)c1sc(-c2nc(C)c(/C(C)=N/Nc3ccccc3)s2)nc1C | – | < 4.81 | < 4.81
COc1cc2ccc3c4cc(OC)c(OCc5ccccc5)cc4cnc3c2cc1OC | inactive | – | –
C[n+]1cn(-c2nc3ccccc3nc2[N-]S(=O)(=O)c2ccccc2)c2ccccc21 | – | < 3.70 | < 3.70
O=C(CC(C(=O)c1cccs1)c1cccs1)c1ccccc1Cl (stereo not drawn) | – | < 3.70 | 4.73
COc1cccc(/C=N/[N-]C(=O)c2ccncc2)c1[O-].[OH3+].[Pd+2] | – | < 4.78 | < 4.78

Compound | outcome | pEC50 | pIC50
CN(c1ccc(Cl)cc1)S(=O)(=O)c1cccc([N+](=O)[O-])c1 | – | < 3.70 | –
CCOC(=O)CC/C(C)=N\n1c(Cc2ccc(Cl)cc2)n[nH]c1=O | inactive | – | –
Oc1ccc2c(c1)OCC1(O)Cc3cc(O)c(O)cc3C21 (stereo not drawn) | inactive | – | –
CNc1ccc2[nH]c(=O)ccc2c1[N+](=O)[O-] | – | < 4.92 | < 4.92
Clc1ccc(-c2nnc(-c3nn(-c4ccccc4)c4nc5ccccc5nc34)o2)cc1 | – | < 5.89 | < 5.89
CC/C=N\N=C(N)N | – | < 3.70 | 4.52
O=C(CSc1nnc(CSc2ccc(Cl)cc2)n1-c1ccccc1)NC(=O)Nc1ccccc1 | – | < 3.74 | 3.94
O=C(O)CCC(NC(=O)OCc1ccccc1)C(=O)NC(Cc1cnc[nH]1)C(=O)O (stereo not drawn) (Cbz-Glu-His-OH; configuration not given here) | – | < 3.70 | < 3.70
Cn1nc(/C=C/c2ccccc2)nc2c(=O)n(C)c(=O)nc1-2 | – | < 3.70 | 6.20
CC1(C)OC2OC(C(COC(=O)c3ccccc3)OC(=O)c3ccccc3)C(F)C2O1 (stereo not drawn) | – | < 4.36 | < 4.36
O=c1[nH]c(=O)n(C2CCC(COP(=O)(O)O)O2)cc1Cc1ccccc1 (stereo not drawn) | – | < 3.33 | < 3.33
CCC1=NC(N/N=C/c2ccco2)=N/C1=C\c1ccco1 | – | < 3.70 | 3.96
C/C=C(\C1CC2c3[nH]c4ccccc4c3CCN2C(=O)C1C(=O)OCC)[Si](C)(C)C (stereo not drawn) | – | < 4.91 | < 4.91
CC1=CC(C)(C)NC(=S)N1c1ccc(C)c(N2C(=S)NC(C)(C)C=C2C)c1 | inactive | – | –
N#CCCN(CCNc1ccccc1)C(=O)Nc1ccc(NC(=O)N(CCC#N)CCNc2ccccc2)cc1 | – | < 3.70 | < 3.70
N=C(N)c1ccc(/C=C/c2ccc(C(=N)N)cc2O)cc1 | – | < 2.84 | 4.26
CC1(c2ccccc2)Sc2ccccc2-n2cccc2C1=O (stereo not drawn) | – | 5.98 | 5.42
CC(=O)O[C@]12CCCCCCC1C1(O)C(O)CCC[C@H]12 (stereo partly drawn) | – | < 3.70 | < 3.70
CCOC(=O)C1C(c2ccccc2)C(C(=O)OCC)C(O)(C(F)(F)F)OC1(O)C(F)(F)F (stereo not drawn) | inactive | – | –
CCOC(=O)C1C=C1C(C)(C)O (stereo not drawn) | – | < 3.82 | 3.87
C[C@]12CC[C@@H]3c4cc(OCC(F)(F)F)c(O)cc4/C(=N/O)C[C@H]3[C@@H]1CC[C@@H]2O | – | < 6.70 | 7.03
O=C1CC(=O)N(CCc2ccccn2)C(=O)N1CCc1ccccn1 | inactive | – | –
CCOC(=O)C1CC(C(=O)c2ccccc2)N2c3ccccc3-c3ccccc3C12 (stereo not drawn) | – | < 3.70 | 5.07

Compound | outcome | pEC50 | pIC50
COc1cc(/C=N\NC(=O)C[N+](C)(C)C)cc(OC)c1OC | – | < 3.70 | < 3.70
O=C1c2c(c3c4ccccc4[nH]c3c3[nH]c4ccccc4c23)C(=O)N1Cc1ccccc1 | – | < 3.83 | 4.99
CCOc1ccc2nc(NC(=O)C(=O)C(C(=O)c3ccccc3-c3ccccc3)C3OC(=O)c4ccccc43)sc2c1 (stereo not drawn) | – | < 3.51 | 3.88
Cc1ccc(S(=O)(=O)n2c(-c3ccccc3)c(-c3ccccc3)c3ccccc32)cc1 | – | < 4.30 | 4.41
CCN(CC)C1Oc2cc3c(cc2C(c2cccc(OC)c2OC)C1C)OCO3 (stereo not drawn) | – | < 3.70 | 5.80
O=C1C=Cc2noc3cccc1c23 | inactive | – | –
COC(=O)C1(O)C(c2ccccc2)=NC2(C)CCCC21 (stereo not drawn) | – | < 3.70 | < 3.70
SC1N=C(c2ccccc2)N2C(S)N=C(c3ccccc3)N12 (stereo not drawn) | – | < 3.70 | 4.08
CC1=CC(O)(c2ccc(-c3ccccc3Cl)cc2)OC1=O (stereo not drawn) | inactive | – | –
O=[N+]([O-])c1cc(Cl)ccc1S(=O)(=O)c1ccccc1 | – | < 3.70 | 4.52 and 4.26
N#CC(C#N)=CN | – | < 3.70 | < 3.70
O=C(O)Cn1ccc(=O)c2ccc([N+](=O)[O-])cc21 | – | < 3.70 | < 3.70
Cc1c(Cl)cccc1NC(=O)C(=O)C(C(=O)c1ccccc1-c1ccccc1)C1OC(=O)c2ccccc21 (stereo not drawn) | – | < 4.16 | 4.58
Cc1nc2c(nc1C)C(=O)C1=C(C2=O)C2C=CC1CC2 | – | < 4.15 | 5.79
COC(=O)[C@H](Cc1ccc(OC(C)(C)C)cc1)N[C@H](C)C(=O)N[C@@H](Cc1ccccc1)C(=O)OCc1ccccc1 | – | < 3.70 | 4.56
Cc1cn(C2CC(n3cncn3)C(C(C)O)O2)c(=O)[nH]c1=O (stereo not drawn) | – | < 3.09 | < 3.09
COc1ccc(C(=O)c2ccc(OC)c(S(=O)(=O)O)c2)cc1S(=O)(=O)O | – | < 3.24 | < 3.24
O=C1C(=O)c2ccccc2C(O)=C1CCCC1CCC2CCCCC2C1 (stereo not drawn) | – | < 3.70 | 5.08
CC(C)(C)C1CCC(N=C(N)CSS(=O)(=O)O)CC1 (stereo not drawn) | – | < 3.70 | 4.62
O=C(O)CC1(CC(=O)Nc2nccs2)CCCCC1 | – | < 3.90 | < 3.90
